Reference: patent publication US10861154B2, “Cell analysis system, cell analysis program and cell analysis method” (Sony Corporation, priority 2013, dated 2020)

What was measured:
Type in all cases: cell-based
[1] = tested on: iPS cell-derived neural cells “iCell Neuron”; assay: Motion amount of iCell Neuron after adding ionotropic receptor antagonists (Example 2); conditions: 5 μM, FIGS. 9 and 10
Method: (§1) On the microscope having the chamber, iPS cell-derived neural cells “iCell Neuron” (produced by Cellular Dynamics International, Inc.) and rat cerebral cortex primary culture (produced by Lonza, Inc.) were each set. Video images of the cells, of 260 frames at object lens magnification 20× and at 7.5 fps (for iCell Neuron) or 5 fps (for rat cerebral cortex primary culture), were taken and were obtained as cell images. A variety of ionotropic receptor antagonists were added to each of the cell cultures. The ionotropic receptor antagonist was Bicuculline which is GABA (gamma-aminobutyrate) receptor antagonist; or CNQX (6-cyano-7-nitroquinoxaline-2,3-dione) which is non-NMDA Glu (glutamate) receptor antagonist.
(§2) The cell image was analyzed with the use of the above-described cell analysis system. Specifically, the motion information was extracted by block matching, using each of the neural cells in the cell image as the extraction range, and the motion amount was calculated from the motion information. FIGS. 9 to 12 are graphs showing results of the calculation of the motion amount. […] Note that the motion amounts shown in the respective figures are average values of the calculated motion amounts for a plurality of detail parts of nerves. […]

[2] = tested on: rat cerebral cortex primary culture; assay: Motion amount of rat cerebral cortex primary culture after adding ionotropic receptor antagonists (Example 2)
Method: as §1, §2

metabolism of the cell = assay: Effect on metabolism of the cell; conditions: 5 μm of HgCl2
[3] = tested on: rat cerebral cortex primary culture; assay: Motion amount of rat cerebral cortex primary culture after adding aquaporin inhibitor (Example 3); conditions: 5 μm of HgCl2, FIG. 15
Method: Further, on the microscope having the chamber, rat cerebral cortex primary culture (produced by Lonza, Inc.) was set. A video image of the cells, of 260 frames at object lens magnification 20× and at 7.5 fps (for iCell Neuron) or 5 fps (for rat cerebral cortex primary culture), was taken and was obtained as a cell image. To the cell culture, […] of HgCl2 as aquaporin inhibitor was added.
The cell image was analyzed with the use of the above-described cell analysis system. Specifically, the motion information was extracted by block matching, using each of the neural cells in the cell image as the extraction range, and the motion amount was calculated from the motion information. FIG. 15 is a graph showing a result of the calculation of the motion amount. In the figure, “0 min” in the abscissa is the time of the addition of the […], and the ordinate indicates a relative motion amount when the value before adding HgCl2 (at 0 min) is assumed to be 1.

[4] = tested on: rat cerebral cortex primary culture; assay: Motion amount of rat cerebral cortex primary culture on change in osmotic pressure by galactose (Example 3); conditions: galactose at a final concentration of 2.5%, compared with no galactose, FIG. 14
Method: On the microscope having the chamber, rat cerebral cortex primary culture (produced by Lonza, Inc.) was set. A video image of the cells, of 260 frames at object lens magnification 20× and at 5 fps, was taken and was obtained as a cell image. To the cell culture, galactose at a final concentration of 2.5% was added. The cell image was analyzed with the use of the above-described cell analysis system. Specifically, the motion information was extracted by block matching, using each of the neural cells in the cell image as the extraction range, and the motion amount was calculated from the motion information.

N#Cc1cc2c(cc1[N+](=O)[O-])=NC(=O)C(=O)N=2 [CNQX, 6-cyano-7-nitroquinoxaline-2,3-dione]
relative motion amount after adding the ionotropic receptor antagonist, value at 0 min = 1 [1]: transiently reduced
relative motion amount after adding the ionotropic receptor antagonist, value at 0 min = 1 ([2]; 5 μM, FIGS. 11 and 12): decreased
motion amount for each individual cell ([2]; 5 μm of CNQX, FIG. 13): the cells in which the motion amount was decreased by an influence of the Glu receptor antagonist and the cells in which the motion amount was not decreased

[Cl][Hg][Cl] [HgCl2]
inhibition of metabolism of the cell (metabolism of the cell): does not inhibit metabolism of the cell
relative motion amount after adding HgCl2, value at 0 min = 1 [3]: transiently reduced

O=C[C@H](O)[C@@H](O)[C@@H](O)[C@H](O)CO [galactose]
median value of the motion amounts for the extraction ranges [4]: almost completely reduced
